Laboratory results taken from US10844049B2, “GLP-1R agonists and uses thereof” (QILU REGOR THERAPEUTICS INC., priority 2018, dated 2020).

Target: GLP1R (Homo sapiens, UniProt P43220)
Assay: GLP1R cAMP HTRF assay, HEK293/GLP-1R/CRE/Luc (HEK293T cells)
Type: cell-based
Details: read-out: EC50
In short: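 cAMP accumulation via HTRF after 30 min, 37 °C exposure of 1000 receptor-expressing cells/well to compound (0.5% DMSO final) in IBMX (500 μM)/0.1% BSA DPBS.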

Sequence of GLP1R (P43220 24-463): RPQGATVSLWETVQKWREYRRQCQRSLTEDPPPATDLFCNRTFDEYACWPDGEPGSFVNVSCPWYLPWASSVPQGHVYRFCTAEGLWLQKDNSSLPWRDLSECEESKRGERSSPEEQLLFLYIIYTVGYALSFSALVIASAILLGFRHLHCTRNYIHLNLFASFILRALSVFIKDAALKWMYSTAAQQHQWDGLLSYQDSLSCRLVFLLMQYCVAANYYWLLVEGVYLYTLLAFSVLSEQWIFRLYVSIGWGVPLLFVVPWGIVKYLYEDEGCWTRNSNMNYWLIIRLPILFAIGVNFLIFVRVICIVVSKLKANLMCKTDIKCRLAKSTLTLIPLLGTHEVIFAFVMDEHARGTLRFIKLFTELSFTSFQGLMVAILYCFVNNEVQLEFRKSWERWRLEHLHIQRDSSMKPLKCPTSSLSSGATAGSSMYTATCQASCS

Structure (SMILES) | EC50 [nM]
N#Cc1ccc(COc2cc(N3CCN(Cc4nc5ccc(C(=O)O)cc5n4C[C@@H]4CCO4)CC3)ccc2F)c(F)c1 [Compound 195, (S)-2-((4-(3-((4-cyano-2-fluorobenzyl)oxy)-4-fluorophenyl)piperazin-1-yl)methyl)-1-(oxetan-2-ylmethyl)-1H-benzo[d]imidazole-6-carboxylic add] | ≤ 15
O=C(O)c1ccc2nc(CC3CCN(c4cccc(OCc5ccc(F)cc5F)n4)CC3)n(C[C@@H]3CCO3)c2n1 [Compound 229, (S)-2-((l-(6-((2,4-difluorobenzyl)oxy)pyridin-2-yl)piperidin-4-yl)methyl)-3-(oxetan-2-ylmethyl)-3H-imidazo[4,5-b]pyridine-5-carboxylic acid] | ≤ 15
O=C(O)c1ccc2nc(CN3CC=C(c4cccc(OCc5ncc(Cl)cn5)n4)CC3)n(C[C@@H]3CCO3)c2c1 [Compound 164, (S)-2-((6-((5-chloropyrimidin-2-yl)methoxy)-3′,6′-dihydro-[2H′-bipyridin]-1′(2′H)-yl)methyl)-1-(oxetan-2-ylmethyl)-1H-benzo[d]imidazole-6-carboxylic acid] | ≤ 150
COc1ccc(COc2cccc(C3=CCN(Cc4nc5ccc(C(=O)O)cc5n4C[C@@H]4CCO4)CC3)n2)nc1 [Compound 117, (S)-2-((6-((5-methoxypyridin-2-yl)methoxy)-3′,6′-dihydro-[2,4′-bipyridin]-1′(2′H)-yl)methyl)-1-(oxetan-2-ylmethyl)-1H-benzo[d]imidazole-6-carboxylic add] | ≤ 15
CCn1cncc1Cn1c(CN2CC=C(c3cccc(OCc4ccc(C#N)cc4F)n3)CC2)nc2ccc(C(=O)O)cc21 [Compound 182, 2-((6-((4-cyano-2-fluorobenzyl)oxy)-3′,6′-dihydro-[2,4′-bipyridin]-1′(2′H)-yl)methyl)-1-((1-ethyl-1H-imidazol-5-yl)methyl)-1H-benzo[d]imidazole-6-carboxylic acid] | ≤ 15
O=C(O)c1ccc2cc(CN3CCN(c4cccc(OCc5ccc(Cl)cc5F)n4)CC3)n(C[C@@H]3CCO3)c2c1 [Compound 49, (S)-2-((4-(6-(4-chloro-2-fluorobenzyloxy)pyridin-2-yl)piperazin-1-yl)methyl)-1-(oxetan-2-ylmethyl)-1 h-indole-6-carboxylic acid] | > 1000
O=C(O)c1ccc2nc(CN3CC=C(c4ccnc(OCc5ccc(C(F)(F)F)nc5)n4)CC3)n(C[C@@H]3CCO3)c2c1 [Compound 219, (S)-1-(oxetan-2-ylmethyl)-2-((4-(2-((6-(trifluoromethyl)pyridin-3-yl)methoxy)pyrimidin-4-yl)-5,6-dihydropyridin-1(2H)-yl)methyl)-1H-benzo[d]imidazole-6-carboxylic acid] | ≤ 1000
CC(c1ncco1)n1c(CN2CC=C(c3cccc(OCc4ccc(Cl)cc4F)n3)CC2)nc2ccc(C(=O)O)cc21 (stereo not drawn) [Compound 112, 2-((6-((4-chloro-2-fluorobenzyl)oxy)-3′,6′-dihydro-[2,4′-bipyridin]-1′(2′H)-yl)methyl)-1-(1-(oxazol-2-yl)ethyl)-1H-benzo[d]imidazole-6-carboxylic acid] | ≤ 1000
CC1(C)CN(Cc2nc3ccc(C(=O)O)cc3n2C[C@@H]2CCO2)CC=C1c1cccc(OCc2ccc(C#N)cc2F)n1 [Compound 235, (S)-2-((6-((4-cyano-2-fluorobenzyl)oxy)-3′,3′-dimethyl-3′,6′-dihydro-[2H′-bipyridin]-1′(2′H)yl)methyl)-1-(oxetan-2-ylmethyl)-1H-benzo[d]imidazole-6-carboxylic add] | ≤ 1000
O=C(O)c1ccc2nc(CN3CC=C(c4cccc(OCc5ccccc5)n4)CC3)n(C[C@@H]3CCO3)c2c1 [Compound 73, (S)-2-((6-(benzyloxy)-5′,6′-dihydro-[2,4′-bipyridin]-1′(2′H)-yl)methyl)-1-(oxetan-2-ylmethyl)-1H-benzo[d]imidazole-6-carboxylic add] | ≤ 150
O=C(O)c1ccc2nc(CN3CCN(c4cccc(OCc5ccc(C#CC6CC6)cc5F)c4)CC3)n(C[C@@H]3CCO3)c2c1 [Compound 190, (S)-2-((4-(3-((4-(cyclopropylethynyl)-2-fluorobenzyl)oxy)phenyl)piperazin-1-yl)methyl)-1-(oxetan-2-ylmethyl)-1H-benzo[d]imidazole-6-carboxylic acid] | ≤ 150
O=C(O)c1ccc2nc(CN3CC=C(c4cccc(OCc5ccc(OC(F)(F)F)cc5)n4)CC3)n(C[C@@H]3CCO3)c2c1 [Compound 120, (S)-1-(oxetan-2-ylmethyl)-2-((6-((4-(trifluoromethoxy)benzyl)oxy)-3′,6′-dihydro-[2,4′-bipyridin]-1′(2′H)-yl)methyl)-1H-benzo[d]imidazole-6-carboxylic acid] | ≤ 15
COc1ccc(COc2cccc(C3=CCN(Cc4nc5ccc(C(=O)O)cc5n4C[C@@H]4CCO4)CC3)n2)cn1 [Compound 119, (S)-2-((6-((6-methoxypyridin-3-yl)methoxy)-3′,6′-dihydro-[2,4′-bipyridin]-1(2′H)-yl)methyl)-1-(oxetan-2-ylmethyl)-1H-benzo[d]imidazole-6-carboxylic acid] | ≤ 15

Next, values leading:

EC50 [nM] | Structure (SMILES)
≤ 15 | N#Cc1ccc(COc2ccnc(C3=CCN(Cc4nc5ccc(C(=O)O)cc5n4C[C@@H]4CCO4)CC3)n2)c(F)c1 [Compound 176, (S)-2-((4-(4-((4-cyano-2-fluorobenzyl)oxy)pyrimidin-2-yl)-3,6-dihydropyridin-1(2H)-yl)methyl)-1-(oxetan-2-ylmethyl)-1H-benzo[d]imidazole-6-carboxylic add]
≤ 150 | O=C(O)c1ccc2nc(CN3CC=C(c4cccc(OCc5ccnc(Cl)c5)n4)CC3)n(C[C@@H]3CCO3)c2c1 [Compound 162, (S)-2-((6-((2-chloropyridin-4-yl)methoxy)-3′,6′-dihydro-[2,4′-bipyridin]-1′(2′H)-yl)methyl)-1-(oxetan-2-ylmethyl)-1H-benzo[d]imidazole-6-carboxylic acid]
≤ 15 | O=C(O)c1ccc2nc(CN3CC=C(c4nc(NCc5ccc(Cl)cc5F)c(F)cc4F)CC3)n(C[C@@H]3CCO3)c2c1 [Compound 133, (S)-2-((4-(6-(4-chloro-2-fluorobenzylamino)-3,5-difluoropyridin-2-yl)-5,6-dihydropyridin-1(2H)-yl)methyl)-1-(oxetan-2-ylmethyl)-1H-benzo[d]imidazole-6-carboxylic acid]
≤ 15 | O=C(O)c1ccc2nc(CN3CCN(c4ncc(F)c(OCc5ccc(Cl)cc5F)n4)CC3)n(C[C@@H]3CCO3)c2c1 [Compound 180, (S)-2-((4-(4-(4-chloro-2-fluorobenzyloxy)-5-fluoropyrimidin-2-yl)piperazin-1-yl)methyl)-1-(oxetan-2-ylmethyl)-1H-benzo[d]imidazole-6-carboxylic add]
≤ 150 | O=C(O)c1ccc2nc(CN3CC=C(c4ccc5ccn(Cc6ccc(Cl)cc6F)c5n4)CC3)n(C[C@@H]3CCO3)c2c1 [Compound 25, (S)-2-((4-(1-(4-chloro-2-fluorobenzyl)-1 h-pyrrolo[2,3-b]pyridin-6-yl)-5,6-dihydropyridin-1(2H)-yl)methyl)-1-(oxetan-2-ylmethyl)-1 h-benzo[d]imidazole-6-carboxylic acid]
≤ 15 | O=C(O)c1ccc2nc(CN3CC=C(c4cccc(OCc5ccc(C#CC6CC6)cc5F)n4)CC3)n(C[C@@H]3CCO3)c2c1 [Compound 108, (S)-2-((6-((4-(cyclopropylethynyl)-2-fluorobenzyl)oxy)-3′,6′-dihydro-[2,4′-bipyridin]-1′(2′H)-yl)methyl)-1-(oxetan-2-ylmethyl)-1H-benzo[d]imidazole-6-carboxylic acid]
> 1000 | CN(Cc1ccc(Cl)cc1F)c1cccc(N2CCN(Cc3nc4ccc(C(=O)O)cc4n3C[C@@H]3CCO3)CC2)n1 [Compound 2, (S)-2-((4-(6-((4-chloro-2-fluorobenzyl)(methyl)amino)pyridin-2-yl)piperazin-1-yl)methyl)-1-(oxetan-2-ylmethyl)-1 h-benzo[d]imidazole-6-carboxylic acid]
≤ 150 | O=C(O)c1ccc2nc(CN3CC=C(c4cc(OCc5ccc(Cl)cc5F)ccn4)CC3)n(C[C@@H]3CCO3)c2c1 [Compound 30, (S)-2-((4-((4-chloro-2-fluorobenzyl)oxy)-3′,6′-dihydro-[2,4′-bipyridin]-1′(2′H)-yl)methyl)-1-(oxetan-2-ylmethyl)-1 h-benzo[d]imidazole-6-carboxylic add]
≤ 15 | O=C(O)c1ccc2nc(CN3CCN(c4nc(OCc5ccc(Cl)cc5F)ncc4F)CC3)n(C[C@@H]3CCO3)c2c1 [Compound 179, (S)-2-((4-(2-(4-chloro-2-fluorobenzyloxy)-5-fluoropyrimidin-4-yl)piperazin-1-yl)methyl)-1-(oxetan-2-ylmethyl)-1H-benzo[d]imidazole-6-arboxylic acid]
≤ 1000 | O=C(O)c1ccc2nc(CN3CC=C(c4cc(-c5ccccc5)cc(OCc5ccc(Cl)cc5F)n4)CC3)n(C[C@@H]3CCO3)c2c1 [Compound 109]
≤ 150 | O=C(O)c1ccc2nc(CN3CC=C(c4cc5cn[nH]c5c(OCc5ccc(Cl)cc5F)n4)CC3)n(C[C@@H]3CCO3)c2c1 [Compound 103, (S)-2-((4-(7-((4-chloro-2-fluorobenzyl)oxy)-1H-pyrazolo[3H-c]pyridin-5-yl)-3,6-dihydropyridin-1(2H)-yl)methyl)-1-(oxetan-2-ylmethyl)-1H-benzo[d]imidazole-6-carboxylic add]
≤ 15 | O=C(O)c1ccc2nc(CN3CC=C(c4cccc(OCc5ccc(F)cc5Cl)n4)CC3)n(C[C@@H]3CCO3)c2c1 [Compound 144, (S)-2-((6-((2-chloro-4-fluorobenzyl)oxy)-3′,6′-dihydro-[2,4′-bipyridin]-1′(2′H)-yl)methyl)-1-(oxetan-2-ylmethyl)-1H-benzo[d]imidazole-6-carboxylic acid]
≤ 150 | O=C(O)c1ccc2nc(CN3CC=C(c4cc(NCc5ccc(Cl)cc5F)ccc4F)CC3)n(C[C@@H]3CCO3)c2c1 [Compound 127, (S)-2-((4-(5-((4-chloro-2-fluorobenzyl)amino)-2-fluorophenyl)-3,6-dihydropyridin-1(2H)-yl)methyl)-1-(oxetan-2-ylmethyl)-1H-benzo[d]imidazole-6-carboxylic acid]
≤ 1000 | O=C(O)c1ccc2nc(CN3CC=C(c4cccc(OCc5c(Cl)cccc5Cl)n4)CC3)n(C[C@@H]3CCO3)c2c1 [Compound 138]
